The source of these data is US20210221808A1, “3-OXAZOLINONE COMPOUND, PREPARATION METHOD THEREFOR AND PHARMACEUTICAL APPLICATION THEREOF” (Beijing Innocare Pharma Tech Co., Ltd., priority 2018, published 2021).

Molecules are shown by their SMILES.

T2 sequence (P28776 whole entry): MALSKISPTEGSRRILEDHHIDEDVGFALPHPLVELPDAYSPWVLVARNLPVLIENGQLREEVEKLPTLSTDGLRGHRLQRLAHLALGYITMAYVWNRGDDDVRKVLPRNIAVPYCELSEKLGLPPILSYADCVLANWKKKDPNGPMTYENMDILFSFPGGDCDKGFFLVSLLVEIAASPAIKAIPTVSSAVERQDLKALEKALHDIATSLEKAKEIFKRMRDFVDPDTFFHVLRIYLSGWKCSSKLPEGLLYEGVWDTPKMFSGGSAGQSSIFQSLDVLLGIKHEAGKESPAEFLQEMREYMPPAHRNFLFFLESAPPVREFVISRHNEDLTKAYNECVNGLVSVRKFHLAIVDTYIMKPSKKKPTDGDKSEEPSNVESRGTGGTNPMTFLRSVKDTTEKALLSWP

In the first assay the target is T1, indoleamine 2,3-dioxygenase (IDO) activity in Hela cells (Homo sapiens, UniProt P14902).
T1 construct: a certain concentration of IFN-γ can induce Hela cells to express IDO; host or cells: HeLa cells induced with IFN-γ
T1 sequence (P14902 whole entry): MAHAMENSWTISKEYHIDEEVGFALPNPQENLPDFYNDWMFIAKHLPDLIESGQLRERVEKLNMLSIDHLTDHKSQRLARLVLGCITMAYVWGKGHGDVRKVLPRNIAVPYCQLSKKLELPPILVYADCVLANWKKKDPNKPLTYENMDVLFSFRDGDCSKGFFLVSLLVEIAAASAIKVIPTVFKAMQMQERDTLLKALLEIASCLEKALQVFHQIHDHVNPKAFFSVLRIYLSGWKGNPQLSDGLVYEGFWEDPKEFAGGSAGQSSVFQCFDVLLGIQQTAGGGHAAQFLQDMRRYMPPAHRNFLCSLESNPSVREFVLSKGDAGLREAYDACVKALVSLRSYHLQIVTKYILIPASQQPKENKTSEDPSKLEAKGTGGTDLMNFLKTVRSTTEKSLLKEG
Briefly: IDO Intracellular Activity Inhibition Test (Ehrlich method, IFN-γ induced Hela cells). It is filed as cell-based. The following applies: IDO activity in Hela cells induced by IFN-γ, 24 hours incubation, OD490. The procedure: IDO Intracellular Activity Inhibition Test
The effect of the compound of the present invention on the indoleamine 2,3-dioxygenase (IDO) activity in Hela cells induced by IFN-γ was evaluated by the Ehrlich method.
The principle underlined for this experiment is summarized as follows: The expression of IDO in Hela cells is low in the absence of any induction. However, a certain concentration of IFN-γ can induce Hela cells to express IDO, so that it can catalyze the production of N-formylkynurenine from tryptophan. The produced N-formylkynurenine can be hydrolyzed by trichloroacetic acid to kynurenine, then a color reaction of the achieved kynurenine with Ehrlich reagent can be used to detect the activity of IDO. The absorbance at 490 nm (OD490) is in proportion to the activity of IDO.
The compound was dissolved and diluted to 5 mM with DMSO (Sigma, catalog number: D5879), then serially diluted in 3 folds each time with DMSO to a minimum concentration of 2.29 μM. The diluent at each concentration point was further diluted in 50 folds with DMEM medium (ThermoFisher, catalog number: 11995073) free of FBS. If the IC50 value of the compound was very low, the initial concentration of the compound could be lowered. Hela cells (ATCC, catalog number CCL-2) were cultured in DMEM complete medium containing 10% FBS (GBICO, catalog number 10099-141) and 100 U/mL penicillin streptomycin mixture (ThermoFisher, catalog number 15140122). When the cell coverage in the culture vessel reached 80-90%, 0.25% pancreatin (containing EDTA) (ThermoFisher, catalog number 25200056) was used to digest and blow off the cells, and the cells were grown in a 96-well plate (Corning, catalog number 3599), 30,000 cells per well (80 μL DMEM medium). The 96-well plate was then incubated in an incubator (37° C., 5% CO2) overnight (18-20 hours).
10 μL of DMEM diluted compound and 10 μL of 500 ng/mL INF-γ were added to each well, and mixed gently. The 96-well plate was placed into an incubator (37° C., 5% CO2) for further incubation. The mixture was taken out and centrifuged at 2000×g at room temperature for 5 minutes after 24 hours of incubation, the supernatant was transferred to the reaction plate (Sigma, catalog number CLS3695), one-twentieth of trichloroacetic acid (Sigma, product number T9159) was added, and incubated at 60° C. after mixed well. 30 minutes later, the reaction plate was taken out and centrifuged at 2000×g at room temperature for 5 minutes, the supernatant was transferred to a clean reaction plate, equal volume of Ehrlich reagent was added, and the mixture was incubated at room temperature after mixed well. The OD490 of each well was determined 5 minutes later.
In the experiment, OD490 of the DMEM medium control group without IFN-γ was used as OD490100% inhbition; OD490 of the group in which the final concentration of IFN-γ in DMSO was 0.2% was used ads OD4900% inhbition.
The percent inhibition of IDO activity in Hela cells by a compound can be calculated by the following formula: […]
IC50 of a compound was calculated by the following formula using 8 concentration points and XLfit (ID Business Solutions Ltd., UK) software
Y=Bottom+(Top−Bottom)/(1+10^((log IC50−X)*slope factor))
where Y is inhibition percentage. Bottom is the bottom plateau of the S-type curve, Top is the top plateau of the S-type curve, X is the logarithm of the concentration of the tested compound, and slope factor is the slope coefficient of the curve.
What is called IC50 is the concentration that inhibits the measured activity by half. High values mean weaker potency, low ones greater potency. `O=c1c2ccc(Cl)cc2[nH]n1C[C@H]1CC[C@H](c2ccnc3ccc(F)cc32)CC1` [Compound 1, 6-chloro-2-(((1r,4r)-4-(6-fluoroquinolin-4-yl)cyclohexyl)methyl)-1,2-dihydro-3H-indazol-3-one] yielded an IC50 of 50 to 200 nM.
On the same count and under the same terms, for `O=c1c2ccc(Cl)cc2[nH]n1C[C@H]1CC[C@@H](c2ccnc3ccc(F)cc32)CC1` [Compound 2, 6-chloro-2-(((1s,4s)-4-(6-fluoroquinolin-4-yl)cyclohexyl)methyl)-1,2-dihydro-3H-indazol-3-one] the value was less than 50 nM; for `CC([C@H]1CC[C@H](c2ccnc3ccc(F)cc32)CC1)n1[nH]c2cc(Cl)ccc2c1=O` (stereo partly shown) [Compound 3, 6-chloro-2-(1-((1r,4r)-4-(6-fluoroquinolin-4-yl)cyclohexyl)ethyl)-1,2-dihydro-3H-indazol-3-one], 50 to 200 nM.
On the same count and under the same terms, for `CC([C@H]1CC[C@@H](c2ccnc3ccc(F)cc32)CC1)n1[nH]c2cc(Cl)ccc2c1=O` (stereo partly shown) [Compound 4, 6-chloro-2-(1-((1s,4s)-4-(6-fluoroquinolin-4-yl)cyclohexyl)ethyl)-1,2-dihydro-3H-indazol-3-one] the value was less than 50 nM.
The same measure, in the same setting: for `Cc1cc([C@H]2CC[C@@H]([C@@H](C)n3[nH]c4cc(Cl)ccc4c3=O)CC2)ccn1` [Compound 5, 6-chloro-2-((R)-1-((1s,4S)-4-(2-methylpyridin-4-yl)cyclohexyl)ethyl)-1,2-dihydro-3H-indazol-3-one] the value was less than 50 nM; for `C[C@H]([C@H]1CC[C@@H](c2ccnc3ccc(F)cc32)CC1)n1[nH]c2cc(Cl)ccc2c1=O` [Compound 6, 6-chloro-2-((R)-1-((1s,4S)-4-(6-fluoroquinolin-4-yl)cyclohexyl)ethyl)-1,2-dihydro-3H-indazol-3-one], less than 50 nM; for `C[C@H]([C@H]1CC[C@@H](c2ccnc3ccc(F)cc32)CC1)n1[nH]c2ccc(Cl)cc2c1=O` [Compound 7, 5-chloro-2-((R)-1-((1s,4S)-4-(6-fluoroquinolin-4-yl)cyclohexyl)ethyl)-1,2-dihydro-3H-indazol-3-one], less than 50 nM.
On to `C[C@H]([C@H]1CC[C@@H](c2ccnc3ccc(F)cc32)CC1)n1[nH]c2cc(Cl)cnc2c1=O` [Compound 8, 6-chloro-2-((R)-1-((1s,4S)-4-(6-fluoroquinolin-4-yl)cyclohexyl)ethyl)-1,2-dihydro-3H-pyrazolo[4,3-b]pyridin-3-one], for which the IC50 is less than 50 nM.
The same measure, in the same setting: for `C[C@H]([C@H]1CC[C@@H](c2ccnc3ccc(F)cc32)CC1)n1[nH]c2ncc(Cl)cc2c1=O` [Compound 9, 5-chloro-2-((R)-1-((1s,4S)-4-(6-fluoroquinolin-4-yl)cyclohexyl)ethyl)-1,2-dihydro-3H-pyrazolo[3,4-b]pyridin-3-one] the value was less than 50 nM.
`C[C@H]([C@H]1CC[C@@H](c2ccnc3ccc(F)cc32)CC1)n1[nH]c2cc(Cl)c(Cl)cc2c1=O` [Compound 10, 5,6-dichloro-2-((R)-1-((1s,4S)-4-(6-fluoroquinolin-4-yl)cyclohexyl)ethyl)-1,2-dihydro-3H-indazol-3-one] came in with an IC50 of less than 50 nM.
Consider `C[C@H]([C@H]1CC[C@@H](c2ccnc3ccc(F)cc32)CC1)n1[nH]c2ccc(Br)cc2c1=O` [Compound 11, 5-bromo-2-((R)-1-((1s,4S)-4-(6-fluoroquinolin-4-yl)cyclohexyl)ethyl)-1,2-dihydro-3H-indazol-3-one], for which the IC50 is less than 50 nM.

A further assay concerns CT26 tumors.
Experiment: not given
The following applies: repeated administration; cited from earlier work.
`NS(=O)(=O)NCCNc1nonc1C(=NO)Nc1ccc(F)c(Br)c1` [INCB-024360]: the “expansion of CT26 tumors” value was “hinders the expansion of CT26 tumors”.

The next assay concerns the target T2, plasma IDO activity (Mus musculus, UniProt P28776).
T2 construct: host or cells: mice, in vivo
Experiment: not given
Conditions: single administration, blank mice; cited from earlier work.
For `NS(=O)(=O)NCCNc1nonc1C(=NO)Nc1ccc(F)c(Br)c1` [INCB-024360], the “inhibition of plasma IDO activity” value is recorded as “effectively inhibit the plasma IDO activity of blank mice to be at the level of IDO-deficient mice”.
